Measurements: PMC9812224, “Analysis of the conformational heterogeneity of the Rieske iron–sulfur protein in complex III2 by cryo-EM” (IUCrJ, 2023)

Target: T1, CIII2 (respiratory complex III dimer, cytochrome bc1 complex) (Yarrowia lipolytica, UniProt Q9B6D0)
T1 construct: gene COB; native homodimeric complex from DDM-solubilized mitochondrial membranes after depletion of His-tagged complex I; untagged; ion exchange and size exclusion; with Cytochrome c1, heme protein, mitochondrial; Cytochrome b-c1 complex subunit 1, mitochondrial; Cytochrome b-c1 complex subunit 2, mitochondrial; Cytochrome b-c1 complex subunit 6; Cytochrome b-c1 complex subunit 7; Cytochrome b-c1 complex subunit 8; Cytochrome b-c1 complex subunit 9; Cytochrome b-c1 complex subunit 10
T1 sequence (Q9B6D0 1-385): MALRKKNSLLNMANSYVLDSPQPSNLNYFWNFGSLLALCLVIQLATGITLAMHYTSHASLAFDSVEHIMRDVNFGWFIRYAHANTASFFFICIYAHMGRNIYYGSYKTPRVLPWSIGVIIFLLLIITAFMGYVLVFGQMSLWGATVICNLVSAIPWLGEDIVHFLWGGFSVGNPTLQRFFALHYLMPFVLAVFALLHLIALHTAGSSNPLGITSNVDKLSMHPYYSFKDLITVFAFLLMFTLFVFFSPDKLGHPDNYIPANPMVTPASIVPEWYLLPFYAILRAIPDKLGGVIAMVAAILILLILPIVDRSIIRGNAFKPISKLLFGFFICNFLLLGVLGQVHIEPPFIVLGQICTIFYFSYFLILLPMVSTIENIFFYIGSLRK
Assay: cryo-EM structure
Format: binding
Details: pH 8.0

CCCCCCCCCCC1=C(C)C(=O)C(OC)=C(OC)C1=O [decylubiquinone]
cryo-EM structure (Qo site, possible low occupancy, 330 µM with 25 mM sodium ascorbate, quinone analogue): density in the Qo site increased, indicating a possible low occupancy of DQ

O=C1C(O)=C([C@H]2CC[C@H](c3ccc(Cl)cc3)CC2)C(=O)c2ccccc21 [atovaquone]
cryo-EM structure (Qo site (cyt b; hydrogen bond to His190 of Rip1), with antimycin A, 120 µM): Atovaquone was resolved in the Qo site in the +atovaquone+antimycin A sample

CCCCCCCCCCc1c(C)c(O)c(OC)c(OC)c1O [decylubiquinol]
cryo-EM structure (Qi site (cyt b only), 1 mM, substrate analogue): After its addition, decylubiquinol was resolved in the Qi site
